Data published in patent US20220395497A1, “Cancer Treatment Using Camptothecin Derivatives” (priority 2019, published 2022).
Where “and” joins values, the source holds several entries; their conditions need not be identical. Equal values may be shown once.

System: adults with recurrence of glioblastoma multiforme (GBM)
Test: Phase 2 open-label study of IV AR-67 (7.5 mg/m2 once daily for 5 days, 21-day cycle) in recurrent GBM: adverse events (Safety Population, NCI-CTCAE). Cohort 1 = not received or not recently failed (>90 days) bevacizumab; Cohort 2 = recently (<90 days) failed bevacizumab
Format: in vivo, human
Procedure: This solution was reconstituted in dextrose 5% in water to a final concentration between 0.06-0.6 mg/mL Drug (7.5 mg/m2) was to be given until the onset of toxicity requiring discontinuation or tumor progression. Tumor response was assessed=14d after every second cycle and before every third cycle using MRI.

[1] = All Patients, N = 45, possibly, probably, or definitely related

SMILES: CC[C@@]1(O)C(=O)OCc2c1cc1n(c2=O)Cc2c-1nc1ccc(O)cc1c2[Si](C)(C)C(C)(C)C [AR-67, (205)-7-tert-butyldimethysilyl-10-hydroxycamptothecin]
- TEAEs associated with laboratory abnormalities assessed as Grade 4 in toxicity, events (All Patients): Three
- headache as TEAE leading to discontinuation, patients (All Patients): 3
- patients with AR-67 permanently discontinued due to an SAE (All Patients): Three
- patients with AR-67 temporarily interrupted or stopped due to an SAE (All Patients): Six
- patients with dose modification due to an SAE (All Patients): 2
- thrombocytopenia, anaemia, neutropenia, and leukopenia, each occurring in % of all patients (All Patients): 11-18%
- Death, No of Events (All Patients, N = 45): 3
- Death, patients (%) (All Patients, N = 45): (6.7) %
- SAE, No of Events (All Patients, N = 45): 30
- TEAE Anaemia, patients (%) (All Patients, N = 45): 15.6%
- TEAE Confusional state, patients (%) (All Patients, N = 45): 11.1%
- TEAE Constipation, patients (%) (All Patients, N = 45): 20.0%
- TEAE Convulsion, patients (%) (All Patients, N = 45): 8.9%
- TEAE Definitely Related to AR-67, No of Events (All Patients, N = 45): 55
- TEAE Diarrhoea, patients (%) (All Patients, N = 45): 15.6%
- TEAE Dizziness, patients (%) (All Patients, N = 45): 11.1%
- TEAE Dyspepsia, patients (%) (All Patients, N = 45): 8.9%
- TEAE Eye Disorders, patients (%) (All Patients, N = 45): 8.9%
- TEAE Flushing, patients (%) (All Patients, N = 45): 11.1%
- TEAE Gastrointestinal Disorders, patients (%) (All Patients, N = 45): (51.1) %
- TEAE General Disorders and Administration Site Conditions, patients (%) (All Patients, N = 45): (37.8) %
- TEAE Headache, patients (%) (All Patients, N = 45): (22.2) %
- TEAE Hiccups, patients (%) (All Patients, N = 45): 11.1%
- TEAE Hyperglycaemia, patients (%) (All Patients, N = 45): 8.9%
- TEAE Hypopho sphataemia, patients (%) (All Patients, N = 45): 8.9%
- TEAE Intensity Life Threatening, No of Events (All Patients, N = 45): 4
- TEAE Intensity Life Threatening, patients (%) (All Patients, N = 45): (8.9) %
- TEAE Intensity Mild, No of Events (All Patients, N = 45): 212/428 and 212
- TEAE Intensity Mild, patients (%) (All Patients, N = 45): (68.9) %
- TEAE Intensity Moderate, No of Events (All Patients, N = 45): 128/428 and 128
- TEAE Intensity Moderate, patients (%) (All Patients, N = 45): (57.8) %
- TEAE Intensity Severe, No of Events (All Patients, N = 45): 75
- TEAE Intensity Severe, patients (%) (All Patients, N = 45): (62.2) %
- TEAE Leukopenia, patients (%) (All Patients, N = 45): 11.1%
- TEAE Lymphocyte count decreased, patients (%) (All Patients, N = 45): 11.1%
- TEAE Muscular weakness, patients (%) (All Patients, N = 45): 11.1%
- TEAE Musculoskeletal and Connective Tissue Disorders, patients (%) (All Patients, N = 45): (28.9) %
- TEAE Musculoskeletal pain, patients (%) (All Patients, N = 45): 6.7%
- TEAE NCI-CTCAE Grade 1, No of Events (All Patients, N = 45): 209
- TEAE NCI-CTCAE Grade 1, patients (%) (All Patients, N = 45): (66.7) %
- TEAE NCI-CTCAE Grade 2, No of Events (All Patients, N = 45): 119
- TEAE NCI-CTCAE Grade 2, patients (%) (All Patients, N = 45): (51.1) %
- TEAE NCI-CTCAE Grade 3, No of Events (All Patients, N = 45): 82
- TEAE NCI-CTCAE Grade 3, patients (%) (All Patients, N = 45): (66.7) %
- TEAE NCI-CTCAE Grade 4, No of Events (All Patients, N = 45): 9
- TEAE NCI-CTCAE Grade 4, patients (%) (All Patients, N = 45): (20.0) %
- TEAE Nausea, patients (%) (All Patients, N = 45): 20.0%
- TEAE Nervous System Disorders, patients (%) (All Patients, N = 45): (51.1) %
- TEAE Neutropenia, patients (%) (All Patients, N = 45): 13.3%
- TEAE Neutrophil count decreased, patients (%) (All Patients, N = 45): 13.3%
- TEAE Not Related to AR-67, No of Events (All Patients, N = 45): 117
- TEAE Platelet count decreased, patients (%) (All Patients, N = 45): 8.9%
- TEAE Possibly Related to AR-67, No of Events (All Patients, N = 45): 170
- TEAE Probably Related to AR-67, No of Events (All Patients, N = 45): 79
- TEAE Psychiatric Disorders, patients (%) (All Patients, N = 45): (28.9) %
- TEAE Respiratory, Thoracic, and Mediastinal Disorders, patients (%) (All Patients, N = 45): (24.4) %
- TEAE Thrombocytopenia, patients (%) (All Patients, N = 45): 17.8%
- TEAE Vascular Disorders, patients (%) (All Patients, N = 45): 17.8%
- TEAE Vision blurred, patients (%) (All Patients, N = 45): 8.9%
- TEAE Vomiting, patients (%) (All Patients, N = 45): 8.9%
- TEAE White blood cell count decreased, patients (%) (All Patients, N = 45): 11.1%
- TEAE leading to death, No of Events (All Patients, N = 45): 17
- TEAE leading to early discontinuation, No of Events (All Patients, N = 45): 10
- TEAE, No of Events (All Patients, N = 45): 428
- ≥1 TEAE leading to death, patients (%) (All Patients, N = 45): (4.4) %
- 1 related SAE, patients (%) [1]: (24.4) %
- related SAE, No of Events [1]: 19/29 and 19/30 and 11/30 and 19
- related TEAE, No of Events [1]: 304
- SAE headache, patients (Cohort 1): 1
- SAE infections and infestations, events (Cohort 1): 4
- SAE infections and infestations, patients (Cohort 1): 3
- SAE nervous system disorders, events (Cohort 1): 3
- SAE nervous system disorders, patients (Cohort 1): 3
- SAE respiratory, thoracic and mediastinal disorders, events (Cohort 1): 3
- SAE respiratory, thoracic and mediastinal disorders, patients (Cohort 1): 2
- Death, No of Events (Cohort 1, N = 30): 1
- Death, patients (%) (Cohort 1, N = 30): (3.3) %
- SAE, No of Events (Cohort 1, N = 30): 16
- TEAE Anaemia, patients (%) (Cohort 1, N = 30): 23.3% and 23%
- TEAE Blood and Lymphatic System Disorders, events (Cohort 1, N = 30): 41
- TEAE Confusional state, patients (%) (Cohort 1, N = 30): 10.0%
- TEAE Constipation, patients (%) (Cohort 1, N = 30): 23.3% and 23%
- TEAE Convulsion, patients (%) (Cohort 1, N = 30): 10.0%
- TEAE Definitely Related to AR-67, No of Events (Cohort 1, N = 30): 36
- TEAE Definitely Related to AR-67, patients (%) (Cohort 1, N = 30): (40.0) %
- TEAE Diarrhoea, patients (%) (Cohort 1, N = 30): 16.7%
- TEAE Dizziness, patients (%) (Cohort 1, N = 30): 16.7%
- TEAE Dyspepsia, patients (%) (Cohort 1, N = 30): 13.3%
- TEAE Eye Disorders, patients (%) (Cohort 1, N = 30): (10.0) %
- TEAE Flushing, patients (%) (Cohort 1, N = 30): (16.7) %
- TEAE Gastrointestinal Disorders, patients (%) (Cohort 1, N = 30): (50.0) %
- TEAE General Disorders and Administration Site Conditions, patients (%) (Cohort 1, N = 30): (36.7) %
- TEAE Headache, patients (%) (Cohort 1, N = 30): 23.3% and 23%
- TEAE Hiccups, patients (%) (Cohort 1, N = 30): (10.0) %
- TEAE Hyperglycaemia, patients (%) (Cohort 1, N = 30): (13.3) %
- TEAE Hypopho sphataemia, patients (%) (Cohort 1, N = 30): (13.3) %
- TEAE Intensity Life Threatening, No of Events (Cohort 1, N = 30): 3
- TEAE Intensity Life Threatening, patients (%) (Cohort 1, N = 30): (10.0) %
- TEAE Intensity Mild, No of Events (Cohort 1, N = 30): 177
- TEAE Intensity Mild, patients (%) (Cohort 1, N = 30): (73.3) %
- TEAE Intensity Moderate, No of Events (Cohort 1, N = 30): 100
- TEAE Intensity Moderate, patients (%) (Cohort 1, N = 30): (66.7) %
- TEAE Intensity Severe, No of Events (Cohort 1, N = 30): 59
- TEAE Intensity Severe, patients (%) (Cohort 1, N = 30): (60.0) %
- TEAE Investigations SOC, events (Cohort 1, N = 30): 101
- TEAE Leukopenia, patients (%) (Cohort 1, N = 30): 16.7%
- TEAE Lymphocyte count decreased, patients (%) (Cohort 1, N = 30): 16.7%
- TEAE Metabolism and Nutrition Disorders, patients (%) (Cohort 1, N = 30): (26.7) %
- TEAE Muscular weakness, patients (%) (Cohort 1, N = 30): 10.0%
- TEAE Musculoskeletal and Connective Tissue Disorders, patients (%) (Cohort 1, N = 30): (33.3) %
- TEAE Musculoskeletal pain, patients (%) (Cohort 1, N = 30): 10.0%
